Source: paper PMC7540173 (Chemistry (Weinheim an Der Bergstrasse, Germany), 2020)

Experiments:
human αvβ3 integrin = human αvβ3 integrin (Homo sapiens, UniProt P05106+P06756); assay: ELISA-like solid-phase integrin binding assay
human α5β1 integrin = human α5β1 integrin (Homo sapiens, UniProt P05556+P08648); assay: ELISA-like solid-phase integrin binding assay
Sequence of human α5β1 integrin (P08648 42-995 limits assumed): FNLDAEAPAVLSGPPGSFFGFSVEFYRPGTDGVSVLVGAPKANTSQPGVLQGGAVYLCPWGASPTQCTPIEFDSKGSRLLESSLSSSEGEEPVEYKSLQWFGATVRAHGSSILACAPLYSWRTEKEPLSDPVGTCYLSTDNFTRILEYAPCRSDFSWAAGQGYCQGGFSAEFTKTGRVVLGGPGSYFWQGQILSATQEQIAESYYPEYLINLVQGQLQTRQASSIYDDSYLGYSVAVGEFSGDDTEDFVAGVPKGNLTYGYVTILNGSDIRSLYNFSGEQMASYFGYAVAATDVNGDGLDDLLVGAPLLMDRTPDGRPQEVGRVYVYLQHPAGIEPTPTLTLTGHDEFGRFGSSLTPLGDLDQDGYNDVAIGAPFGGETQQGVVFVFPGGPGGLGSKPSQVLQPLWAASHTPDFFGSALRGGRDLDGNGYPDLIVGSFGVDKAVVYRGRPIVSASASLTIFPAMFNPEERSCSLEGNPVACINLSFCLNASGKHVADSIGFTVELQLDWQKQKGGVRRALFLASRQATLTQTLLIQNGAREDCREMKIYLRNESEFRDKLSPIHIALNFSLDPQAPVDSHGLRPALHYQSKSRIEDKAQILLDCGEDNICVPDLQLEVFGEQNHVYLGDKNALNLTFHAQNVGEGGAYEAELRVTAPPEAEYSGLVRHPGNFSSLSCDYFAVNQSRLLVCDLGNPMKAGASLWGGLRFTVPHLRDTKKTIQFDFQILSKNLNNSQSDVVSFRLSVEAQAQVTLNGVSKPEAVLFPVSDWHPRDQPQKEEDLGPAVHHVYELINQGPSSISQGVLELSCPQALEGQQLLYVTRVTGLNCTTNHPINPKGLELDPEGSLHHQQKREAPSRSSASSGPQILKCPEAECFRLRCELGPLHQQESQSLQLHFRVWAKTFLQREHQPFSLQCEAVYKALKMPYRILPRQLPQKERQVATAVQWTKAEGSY
Sequence of human α5β1 integrin (P05556 21-728 limits assumed): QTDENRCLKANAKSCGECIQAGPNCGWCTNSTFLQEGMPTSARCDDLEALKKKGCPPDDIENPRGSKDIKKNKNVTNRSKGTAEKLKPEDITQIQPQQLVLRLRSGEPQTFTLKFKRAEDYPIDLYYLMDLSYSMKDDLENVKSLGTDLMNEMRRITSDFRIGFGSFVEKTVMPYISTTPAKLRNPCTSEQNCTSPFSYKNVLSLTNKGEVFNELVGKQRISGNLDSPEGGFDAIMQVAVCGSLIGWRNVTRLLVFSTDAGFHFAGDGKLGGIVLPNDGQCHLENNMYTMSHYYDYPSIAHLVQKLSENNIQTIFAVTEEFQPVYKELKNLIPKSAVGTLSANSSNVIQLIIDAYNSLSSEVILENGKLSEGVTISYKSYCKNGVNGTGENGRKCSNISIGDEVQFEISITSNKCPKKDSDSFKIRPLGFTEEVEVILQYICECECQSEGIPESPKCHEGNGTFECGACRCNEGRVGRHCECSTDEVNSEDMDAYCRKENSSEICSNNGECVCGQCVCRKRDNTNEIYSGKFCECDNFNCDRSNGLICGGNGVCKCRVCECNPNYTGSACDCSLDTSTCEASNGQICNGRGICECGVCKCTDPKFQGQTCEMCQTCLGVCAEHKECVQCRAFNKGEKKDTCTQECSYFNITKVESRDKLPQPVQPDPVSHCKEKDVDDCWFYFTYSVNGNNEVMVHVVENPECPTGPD

Sequence of human αvβ3 integrin (P06756 31-992 limits assumed): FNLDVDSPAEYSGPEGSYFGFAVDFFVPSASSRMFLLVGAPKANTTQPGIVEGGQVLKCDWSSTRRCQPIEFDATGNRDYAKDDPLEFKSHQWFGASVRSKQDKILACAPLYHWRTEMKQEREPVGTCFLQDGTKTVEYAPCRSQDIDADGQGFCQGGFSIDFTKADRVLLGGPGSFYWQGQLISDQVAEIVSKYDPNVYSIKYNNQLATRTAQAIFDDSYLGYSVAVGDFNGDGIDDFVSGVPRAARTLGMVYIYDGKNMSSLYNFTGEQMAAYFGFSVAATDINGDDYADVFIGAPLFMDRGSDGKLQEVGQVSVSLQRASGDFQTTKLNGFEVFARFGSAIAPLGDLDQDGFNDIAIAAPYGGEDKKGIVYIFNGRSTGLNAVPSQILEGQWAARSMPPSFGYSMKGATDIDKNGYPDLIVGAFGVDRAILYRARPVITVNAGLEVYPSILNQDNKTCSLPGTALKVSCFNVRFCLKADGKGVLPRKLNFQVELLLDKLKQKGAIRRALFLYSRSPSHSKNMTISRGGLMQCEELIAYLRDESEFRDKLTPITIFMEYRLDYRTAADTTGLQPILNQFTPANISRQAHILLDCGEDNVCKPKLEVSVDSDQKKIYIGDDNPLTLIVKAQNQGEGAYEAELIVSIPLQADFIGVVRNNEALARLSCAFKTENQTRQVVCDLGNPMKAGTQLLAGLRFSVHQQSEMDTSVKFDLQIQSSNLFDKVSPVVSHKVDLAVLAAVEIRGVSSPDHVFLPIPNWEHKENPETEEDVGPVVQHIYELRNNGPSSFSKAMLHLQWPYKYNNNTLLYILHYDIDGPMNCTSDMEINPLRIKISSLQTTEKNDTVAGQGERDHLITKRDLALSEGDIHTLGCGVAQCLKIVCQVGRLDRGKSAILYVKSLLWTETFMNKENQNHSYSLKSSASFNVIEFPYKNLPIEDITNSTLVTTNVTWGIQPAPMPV
Sequence of human αvβ3 integrin (P05106 27-718 limits assumed): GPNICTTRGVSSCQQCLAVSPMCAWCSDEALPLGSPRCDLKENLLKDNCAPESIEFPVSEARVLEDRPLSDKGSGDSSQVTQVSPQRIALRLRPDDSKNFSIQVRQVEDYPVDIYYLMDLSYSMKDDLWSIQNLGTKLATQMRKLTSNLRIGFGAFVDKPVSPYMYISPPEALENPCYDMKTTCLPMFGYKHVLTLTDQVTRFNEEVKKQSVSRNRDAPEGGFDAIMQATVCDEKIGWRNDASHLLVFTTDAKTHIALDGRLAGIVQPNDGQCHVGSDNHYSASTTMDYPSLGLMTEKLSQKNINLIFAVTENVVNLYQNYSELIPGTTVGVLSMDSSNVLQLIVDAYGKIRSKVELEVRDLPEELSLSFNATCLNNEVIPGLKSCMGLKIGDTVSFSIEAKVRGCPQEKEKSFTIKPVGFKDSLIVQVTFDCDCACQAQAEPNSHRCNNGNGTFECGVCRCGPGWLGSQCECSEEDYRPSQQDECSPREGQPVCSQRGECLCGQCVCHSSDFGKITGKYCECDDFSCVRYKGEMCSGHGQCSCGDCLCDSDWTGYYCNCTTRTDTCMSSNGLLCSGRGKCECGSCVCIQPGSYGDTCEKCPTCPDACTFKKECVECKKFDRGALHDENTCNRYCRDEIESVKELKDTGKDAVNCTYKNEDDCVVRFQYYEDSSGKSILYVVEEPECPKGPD

| Compound | IC50 (human αvβ3 integrin) [nM] | IC50 (human α5β1 integrin) [nM] | decrease in the affinities compared to their unmethylated analogues (human αvβ3 integrin; N-methyl tryptophan derivatives vs 12 a–c) | selectivity towards the integrin αVβ3 (over α5β1) (human αvβ3 integrin; ratio of IC50 α5β1 / αVβ3) |
| --- | --- | --- | --- | --- |
| N=C(N)NCCC[C@@H]1NC(=O)CCCCCN2c3ccccc3Sc3cc(ccc32)-c2cccc3c(c[nH]c23)C[C@@H](C(N)=O)NC(=O)[C@H](CC(=O)O)NC(=O)CNC1=O [12 a, c(RGDW(7‐3Ptz^2))] | 330 ± 40 | – | – | – |
| N=C(N)NCCC[C@@H]1NC(=O)CCCCCN2c3ccccc3Sc3cc(ccc32)-c2cccc3c(c[nH]c23)C[C@H](C(N)=O)NC(=O)[C@H](CC(=O)O)NC(=O)CNC1=O [12 b, c(RGDw(7‐3Ptz^2))] | 600 ± 110 | 5680 ± 1280 | – | – |
| N=C(N)NCCC[C@@H]1NC(=O)CN2c3ccccc3Sc3cc(ccc32)-c2cccc3c(c[nH]c23)C[C@@H](C(N)=O)NC(=O)[C@H](CC(=O)O)NC(=O)CNC1=O [12 c, c(RGDW(7‐3Ptz^1))] | 310 ± 80 | 2220 ± 1040 | – | – |
| N=C(N)NCCC[C@@H]1NC(=O)CN2c3ccccc3Sc3cc(ccc32)-c2cccc3c(c[nH]c23)C[C@H](C(N)=O)NC(=O)[C@H](CC(=O)O)NC(=O)CNC1=O [12 d, c(RGDw(7‐3Ptz^1))] | 780 ± 170 | > 10000 | – | – |
| CN1C(=O)[C@H](CC(=O)O)NC(=O)CNC(=O)[C@H](CCCNC(=N)N)NC(=O)CCCCCN2c3ccccc3Sc3cc(ccc32)-c2cccc3c(c[nH]c23)C[C@H]1C(N)=O [12 e, c(RGD(NMe)W(7‐3Ptz^2))] | 6550 ± 760 | – | 15–20 fold | – |
| CN1C(=O)[C@H](CC(=O)O)NC(=O)CNC(=O)[C@H](CCCNC(=N)N)NC(=O)CN2c3ccccc3Sc3cc(ccc32)-c2cccc3c(c[nH]c23)C[C@H]1C(N)=O [12 f, c(RGD(NMe)W(7‐3Ptz^1))] | 4520 ± 530 | > 10000 | – | – |
| N#CC(C#N)=Cc1ccc2c(c1)Sc1cc3ccc1N2CCCCCC(=O)N[C@@H](CCCNC(=N)N)C(=O)NCC(=O)N[C@@H](CC(=O)O)C(=O)N[C@@H](C(N)=O)Cc1c[nH]c2c-3cccc12 [12 g, c(RGDw(7‐3Ptz^2(CH(CN)2))] | 961 ± 50 | > 10000 | – | – |
| c(RGDW(7‐3Ptz^1(O))) [12 h] | – | – | – | ≈ 110 fold |
